In patent US20020143059A1, “Skin care product containing retinoids, retinoid booster and phytoestrogens in a dual compartment package” (priority 2000, published 2002):

Biological target: T1, CRABPII (Homo sapiens, UniProt P29373)
T1 construct: made in house; host or cells: E. coli BLR(DE3)pLysS
T1 sequence (P29373 1-138): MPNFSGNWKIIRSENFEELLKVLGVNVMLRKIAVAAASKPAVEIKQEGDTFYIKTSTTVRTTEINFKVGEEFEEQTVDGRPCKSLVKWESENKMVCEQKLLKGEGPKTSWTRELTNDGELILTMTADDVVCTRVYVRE
Experiment: CRABPII antagonist radioactive binding assay
Conditions: competition with radioactive all trans retinoic acid, ligand in excess
Description: 2.6 Assay for CRABPII antagonists (To identify B4)
2.6.1 Synthesis of CRABPII
The gene CRABPII was cloned in pET 29a-c(+) plasmid (Novagen). The cloned gene was under control of strong bacteriophage T7 transcription and translation signals. The source of T7 polymerase was provided by the host cell E.coli BLR(DE3)pLysS (Novagen). The latter has a chromosomal copy of T7 polymerase under lacUV5 control, induced by the presence of IPTG. The plasmid was transferred into E. coli BLR(DE3)pLysS cells by transformation according to the manufacturer protocol (Novagen).
An overnight culture of the transformed cells was diluted 1:100 into 2xYT containing 50 μg/mL kanamycin and 25 μg/mL chloramphenicol. The cells grew while shaking at 37° C. until the OD at 600 nm reached 0.6-0.8. Then IPTG was added to a final concentration of 1 mM and the culture was incubated for an additional two hours. The cells were harvested by centrifugation at 5000 g for 10 minutes at room temperature. The pellet was stored at −20° C. […]
The supernatant from step a. was loaded onto a 2.5×100 cm column of sephacryl S-300 (Pharmacia) at room temperature. […] Collected 2-mL fractions were checked for ultraviolet absorbance at 280 nm. […]
For the competitive assay, another ligand in excess (6670:1, 670:1 or 70:1) was added to the mix. […] The radioactivity of the filtrate was measured by scintillation counter.

CCCCCCC(O)CCCCCCCCCCC(=O)O (stereo not shown) [12-Hydroxystearic Acid]
% Inhibition CRABPII: >50%
